Assay results from patent publication EP1878431B1, “MEDICINAL AGENT FOR PREVENTING PROGRESSION OF APOPTOTIC AND JUGULATING NECROTIC CHANGES IN THE ORGANISM TISSUES” (Obschestvo S Ogranichennoi Otvetstvennostyu …, priority 2005, dated 2006).
Marks after values point to notes of the source that are not given here.

What was measured:
[1] = test system: low-resistant to hypoxia animals; assay: Acute hypobaric anoxia in combination with hypercapnia (lifting to 11,500 m): lifetime, loss of pose time, restitution time, stability factor; type: in vivo; settings: for Stability factor: ratio of duration to restitution time
Description: (§1) Example 7. Acute hypobaric anoxia (as one of the most adequate methods of hypoxia study) in combination with hypercapnia was modeled by "lifting" low-resistant to hypoxia animals to a critical altitude of 11,500 m at a speed of 1,200 m/min. If at this altitude for more than 10 minutes, hypoxia modeling stopped, and the animals were considered conditionally "high-resistant", and animals that lived less than 10 minutes were considered conditionally "low-resistant". In the present study, only animals with low-resistance to hypoxia were used. During the second experiment of "lifting" animals in order to simulate hypobaric anoxia, in combination with hypercapnia, these parameters were recorded: loss of pose time (LPT), lifetime - time from the end of "lifting" until respiratory standstill or the first atonal inhalation occurrence, restitution time (RT) - from a respiratory standstill until active pose restoration after descending the animal. The hypoxia stability factor was calculated as a ratio of the duration to the restitution time, an increase of which means the growth of the organism's resistance to the occurrence of extreme oxygen deprivation.
(§2) The studied substances were injected intravenously (method that reflects the maximum effect of the medication) 15 minutes prior to the experiment. The designed medication was also injected intravenously in the form of an infusion or pills that were administered orally or a suppository.

[2] = test system: poly-(ADP-ribose)-polymerase; assay: PARP activity in myocardium and brain at acute hypobaric hypoxia with hypercapnia; type: in vivo
Description: (§3) The apoptosis activity was judged by poly-(ADP-ribose)-polymerase (key ferment of apoptotic cell loss), which was determined using Amersham Pharmacia Biotech test sets. The extent of necrotic cardiomyocites damage was estimated according to the quantity of myoglobin entry in the blood, in which the myoglobin content was measured spectrophotometrically.
as §1, §2

myocardium = assay: Myocardium ischemia (coronary artery ligation) with arterial hypertension: arrhythmia, ischemia and necrosis zones, myoglobin; type: in vivo, rats; settings: for Arrhythmia duration / Ischemia zone, % of myocardium mass / Necrosis zone, % from ischemia zone / Necrosis zone, % from myocardium mass: 6 hours after bandaging
Description: as §3
(§4) Arterial hypertensia of normotensive rats was reproduced by imposing the ligature in the form of a titanic heliciform ring on a site of an aorta with the arteries of kidneys departing from it. The reached narrowing of an aortic lumen was 2/3 in diameter. Animals were operated on under anesthetic, in which their abdominal cavity was opened. The arterial pressure was measured by use of a gauge with a rubber cuff on the animal's tail. A signal from the gauge was recorded on a Mingograph EMT 118. On the 30th day after the operation, all of the animals were divided into two groups: in the first group the animal's left descending interventricular artery at its top third was ligated - the hard ischemia of a myocardium, and in the second group, an irreversible bilateral occlusion of the general carotids was reproduced with a silk thread (see example 9). […] Both groups of animals were euthanased on the 10th day after the operation. All of the investigated connections were introduced intravenously (this method of introduction was chosen to reflect the maximum effect of the medication) within 15 minutes after coronary artery bandaging. The developed means was also introduced intravenously in the form of an infusion in 5% glucose, or in tablet form with an oral administration, or in a kind of suppository.

[3] = test system: poly-(ADP-ribose)-polymerase; assay: PARP activity during myocardium ischemia with arterial hypertension; type: in vivo, rats; settings: no unit in table (b49 gives the norm in pkMole/mg of protein)
Description: as §3
as §4, with “All of the investigated connections were introduced intravenously (this method of introduction was chosen to reflect the maximum effect of the medication) within 15 minutes after coronary artery bandaging. The developed means was also introduced intravenously in the form of an infusion in 5% glucose, or in tablet form with an oral administration, or in a kind of suppository.” left out

[4] = 100 mg/kg intravenously 15 minutes prior to the experiment
[5] = 50 mg/kg intravenously 15 minutes prior to the experiment
[6] = 500 mg/kg intravenously 15 minutes prior to the experiment
[7] = 75 mg/kg intravenously within 15 minutes after coronary artery bandaging
[8] = 100 mg/kg intravenously within 15 minutes after coronary artery bandaging
[9] = 1.0 mg/kg intravenously 15 minutes prior to the experiment
[10] = 10.0 mg/kg intravenously 15 minutes prior to the experiment

SMILES: O=C(O)CCC(=O)O [succinic acid]
- Duration [1, 4]: 747 ± 90 s
- Loss of Pose Time [1, 4]: 121 ± 34 s
- Restitution time [1, 4]: 1042 ± 69 s
- Stability factor [1, 4]: 1.0±0.2
- PARP activity, % of control brain [2, 4]: 325±20 % of control
- PARP activity, % of control myocardium [2, 4]: 225±22 % of control

SMILES: NC(=S)N=C(N)N [hutimine]
- Duration [1, 4]: 986 ± 87 s
- Loss of Pose Time [1, 4]: 186 ± 32 s
- Restitution time [1, 4]: 685 ± 82 s
- Stability factor [1, 4]: 1.45±0.12
- PARP activity, % of control brain [2, 4]: 290±83 % of control
- PARP activity, % of control myocardium [2, 4]: 212±23 % of control

SMILES: OC[C@H]1O[C@@H](n2cnc3c(O)ncnc32)[C@H](O)[C@@H]1O [inosine]
- Duration [1, 4]: 754 ± 30 s
- Loss of Pose Time [1, 4]: 186 ± 39 s
- Restitution time [1, 4]: 680 ± 69 s
- Stability factor [1, 4]: 1.16±0.16
- PARP activity, % of control brain [2, 4]: 242±24 % of control
- PARP activity, % of control myocardium [2, 4]: 192±23 % of control

SMILES: CCc1nc(C)ccc1O.O=C(O)CCC(=O)O [3-oxy-3-methyl-6-oxypyridine succinate]
- Duration [1, 5]: 778 ± 107 s
- Loss of Pose Time [1, 5]: 136 ± 22 s
- Restitution time [1, 5]: 680 ± 69 s
- Stability factor [1, 5]: 1.14±0.12
- Duration [1, 4]: 707 ± 145 s
- Loss of Pose Time [1, 4]: 156 ± 29 s
- Restitution time [1, 4]: 642 ± 69 s
- Stability factor [1, 4]: 1.10±0.13
- Duration [1, 6]: 784 ± 107 s
- Loss of Pose Time [1, 6]: 136 ± 39 s
- Restitution time [1, 6]: 690 ± 83 s
- Stability factor [1, 6]: 1.14±0.10
- PARP activity, % of control brain [2, 5]: 312±29 % of control
- PARP activity, % of control myocardium [2, 5]: 204±21 % of control
- PARP activity, % of control brain [2, 4]: 317±21 % of control
- PARP activity, % of control myocardium [2, 4]: 208±29 % of control
- PARP activity, % of control brain [2, 6]: 302±32 % of control
- PARP activity, % of control myocardium [2, 6]: 202±19 % of control

SMILES: C[N+](C)(C)C[C@H](O)CC(=O)[O-] [L-carnitine]
- Arrhythmia duration (myocardium; [7]): 68 ± 8 min
- Ischemia zone, % of myocardium mass (myocardium; [7]): 40±3 % of myocardium mass
- Necrosis zone, % from ischemia zone (myocardium; [7]): 70±5 % from ischemia zone
- Necrosis zone, % from myocardium mass (myocardium; [7]): 28±9 % from myocardium mass
- Myoglobin content after 8 hours (myocardium; [7]): 132±10 mcg/g dry solid matter
- PARP activity [3, 7]: 0,406± 0,030

SMILES: CCc1nc(C)ccc1O [3-hydroxy-6-methyl-2-ethylpyridine]
- Arrhythmia duration (myocardium; [8]): 58 ± 9 min
- Ischemia zone, % of myocardium mass (myocardium; [8]): 39±3 % of myocardium mass
- Necrosis zone, % from ischemia zone (myocardium; [8]): 67±3 % from ischemia zone
- Necrosis zone, % from myocardium mass (myocardium; [8]): 26±9 % from myocardium mass
- Myoglobin content after 8 hours (myocardium; [8]): 127±12 mcg/g dry solid matter
- PARP activity [3, 8]: 0,256± 0,032

SMILES: NC(=O)c1ccc[n+]([C@@H]2O[C@H](COP(=O)([O-])OP(=O)(O)OC[C@H]3O[C@@H](n4cnc5c(N)ncnc54)[C@H](O)[C@@H]3O)[C@@H](O)[C@H]2O)c1 [NAD, nicotine-amide-adenine-dinucleotide]
- Duration [1, 9]: 2034 ± 234 s
- Loss of Pose Time [1, 9]: 936 ± 79 s
- Restitution time [1, 9]: 1042 ± 44 s
- Stability factor [1, 9]: 1.95±0.25
- Duration [1, 10]: 2077 ± 109 s
- Loss of Pose Time [1, 10]: 1036 ± 91 s
- Restitution time [1, 10]: 1000 ± 82 s
- Stability factor [1, 10]: 2.08±0.22
- PARP activity, % of control myocardium [2, 9]: 100±29 % of control
- PARP activity, % of control myocardium [2, 10]: 103±24 % of control

SMILES: O=C([O-])CCCO.[Li+] [Lithium oxybutyrate]
- Duration [1, 4]: 1345 ± 89 s
- Loss of Pose Time [1, 4]: 436+90** sec
- Restitution time [1, 4]: 885 ± 82 s
- Stability factor [1, 4]: 1.4±0.2
- PARP activity, % of control brain [2, 4]: 300±82 % of control
- PARP activity, % of control myocardium [2, 4]: 200±33 % of control
